“And” between values parts separate entries of the source, which are not always exact repeats. Equal values may be shown once.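 Grown in 96-well plates, cells were treated for 48 hours with each compound at five concentrations. Insufficient inhibition: endpoint recorded as highest concentration tested. GI50 is the concentration that inhibits growth by half. TGI is the concentration that stops growth completely.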

Some test systems named below: SW-620 colon; OVCAR-8 ovarian; NCI-H23 lung; KM12 colon; HCT-15 colon; RPMI-8226 leukemia; MALME-3M melanoma; T-47D breast; NCI/ADR-RES ovarian; DU-145 prostate.
Experiment in all cases: NCI anticancer screen, dose series, 48 h

In the case of `CC(=O)NC(CC(C)C)C(=O)NC(Cc1ccccc1)C(=S)N1CCCC1` (stereo not given), the TGI in the experiment with SW-620 colon, in the experiment with OVCAR-8 ovarian, with NCI-H23 lung, in the experiment on KM12 colon, in the experiment with HCT-15 colon and in the experiment with RPMI-8226 leukemia was greater than 100 µM in each case. This compound showed a TGI in the experiment with MALME-3M melanoma greater than 100 µM.

Turning to `Cc1ccc(S(=O)(=O)N/N=C(/c2nc3ccc([N+](=O)[O-])cc3[nH]c2=O)C(O)c2ccc(C(O)/C(=N\NS(=O)(=O)c3ccc(C)cc3)c3nc4ccc([N+](=O)[O-])cc4[nH]c3=O)cc2)cc1` (stereo not given), the TGI with SW-620 colon, with OVCAR-8 ovarian, in the experiment on NCI-H23 lung, in the experiment with KM12 colon, in the experiment with RPMI-8226 leukemia and in the experiment on MALME-3M melanoma was greater than 100 µM in each case.

In the case of `Cc1c(/C=N/N(C)C)oc2c1cc(O)c1ncccc12`, the TGI with SW-620 colon is greater than 100 µM; in the experiment with OVCAR-8 ovarian it was 74.2 µM; with NCI-H23 lung, greater than 100 µM; with KM12 colon it was greater than 100 µM; with HCT-15 colon, greater than 100 µM; with RPMI-8226 leukemia it was greater than 100 µM. The TGI with MALME-3M melanoma stood at 84.5 µM.

For `O=P(O)(O)C1(P(=O)(O)O)CC1`, the TGI in the experiment on SW-620 colon, in the experiment with OVCAR-8 ovarian, in the experiment on NCI-H23 lung, in the experiment on KM12 colon, in the experiment on HCT-15 colon and in the experiment on RPMI-8226 leukemia was greater than 100 µM in each case. The compound further registered a TGI in the experiment with MALME-3M melanoma greater than 100 µM.

In the case of `O=C(NNc1ccccc1)/C(=C/c1ccc2c(c1)OCO2)NC(=O)c1ccccc1`, the TGI in the experiment on OVCAR-8 ovarian, in the experiment on NCI-H23 lung, in the experiment on KM12 colon, in the experiment on HCT-15 colon, with RPMI-8226 leukemia and in the experiment on MALME-3M melanoma was greater than 100 µM each time.

Regarding `CC(C)(C)C(C#N)(C#N)c1ccc(C(C#N)(C#N)C(C)(C)C)nn1`, the TGI in the experiment with SW-620 colon, in the experiment with OVCAR-8 ovarian, in the experiment with NCI-H23 lung, in the experiment with KM12 colon, in the experiment with HCT-15 colon and in the experiment with RPMI-8226 leukemia was greater than 100 µM throughout. In addition, the TGI in the experiment with MALME-3M melanoma was greater than 100 µM.

As for `Brc1ccc2ns[s+]c2c1`, the TGI in the experiment with SW-620 colon, with OVCAR-8 ovarian, in the experiment with NCI-H23 lung, in the experiment with KM12 colon, in the experiment with HCT-15 colon and with RPMI-8226 leukemia was greater than 100 µM each time. The compound further displayed a TGI in the experiment on MALME-3M melanoma greater than 86 µM.

For the compound `CC1=C(C(=O)Nc2cc(F)c(F)cc2F)C(c2ccc([N+](=O)[O-])cc2)C(C(=O)Nc2cc(F)c(F)cc2F)=C(C)N1`, the TGI is greater than 100 µM in the experiment with SW-620 colon; greater than 100 µM in the experiment on OVCAR-8 ovarian; greater than 100 µM with NCI-H23 lung; greater than 100 µM with KM12 colon; 45.1 µM in the experiment on RPMI-8226 leukemia; greater than 100 µM in the experiment on MALME-3M melanoma.

For `CC[C@H](C)[C@H](NC(=O)[C@H]1CCCCN1C)C(=O)N(C)[C@H](C[C@@H](OC(C)=O)c1nc(C(=O)N[C@@H](Cc2ccccc2)C[C@H](C)C(=O)O)cs1)C(C)C`, the GI50 with SW-620 colon was 0.000332 µM and 0.00165 µM; in the experiment with OVCAR-8 ovarian, 0.00297 µM and 0.00165 µM; in the experiment with NCI-H23 lung it was 0.000887 µM and 0.00165 µM; with KM12 colon it was 0.000269 µM and 0.00165 µM; in the experiment with T-47D breast, greater than 16.5 µM; in the experiment on NCI/ADR-RES ovarian, 0.00473 µM and 0.00165 µM. The GI50 in the experiment with HCT-15 colon is 0.00133 µM and 0.00165 µM; with RPMI-8226 leukemia it was 0.000264 µM and 0.00165 µM; in the experiment on DU-145 prostate it was 0.000475 µM and 0.00165 µM. Also, the TGI was greater than 16.5 µM in the experiment on SW-620 colon; greater than 16.5 µM in the experiment on OVCAR-8 ovarian; greater than 16.5 µM in the experiment with NCI-H23 lung; greater than 16.5 µM in the experiment with T-47D breast; greater than 16.5 µM in the experiment with HCT-15 colon; 6.56 µM in the experiment with RPMI-8226 leukemia. Also, in the experiment on DU-145 prostate, the TGI stood at 0.0367 µM.

For `COc1cc(CCc2ccc(N)cc2)cc(OC)c1OC`, the TGI in the experiment with SW-620 colon, in the experiment on OVCAR-8 ovarian, with NCI-H23 lung, with KM12 colon, with HCT-15 colon and with RPMI-8226 leukemia was greater than 100 µM throughout. This compound also registered a TGI in the experiment with MALME-3M melanoma greater than 80 µM.

Regarding `CN(C)CCNC(=O)c1cccc2c1Oc1c(cccc1[N+](=O)[O-])O2`, the TGI worked out at 10.2 µM in the experiment with SW-620 colon; 16.5 µM in the experiment with OVCAR-8 ovarian; 9.58 µM in the experiment on NCI-H23 lung; 3.46 µM in the experiment on KM12 colon; 1.93 µM in the experiment with T-47D breast; 3.89 µM in the experiment on HCT-15 colon. The TGI in the experiment on RPMI-8226 leukemia is greater than 100 µM; in the experiment with DU-145 prostate it was 5.37 µM; in the experiment with MALME-3M melanoma, 3.88 µM.

As for `CC(=O)OC1COC(n2c(=S)n(-c3ccccc3)c(=O)c3ccccc32)C(OC(C)=O)C1OC(C)=O` (stereo not given), the TGI in the experiment with SW-620 colon, in the experiment on OVCAR-8 ovarian, in the experiment with NCI-H23 lung, in the experiment with KM12 colon, with HCT-15 colon and in the experiment with RPMI-8226 leukemia was greater than 100 µM in each case. The compound also came in with a TGI in the experiment on MALME-3M melanoma greater than 100 µM.

In the case of `O=C(Nc1nc2c(ncn2C2OC(CO)C(O)C2O)c(=O)[nH]1)c1ccccc1` (stereo not given), the TGI with SW-620 colon, with OVCAR-8 ovarian, with NCI-H23 lung, in the experiment on KM12 colon, with HCT-15 colon and with RPMI-8226 leukemia was greater than 100 µM throughout. The same compound registered a TGI in the experiment with MALME-3M melanoma greater than 100 µM.

Take `CC(=O)NNc1nc(C)c(C(=O)NNC(=O)C(=O)Nc2ccc(Cl)cc2Cl)s1`: the TGI in the experiment on SW-620 colon was 50.2 µM; in the experiment with OVCAR-8 ovarian it was greater than 100 µM; with NCI-H23 lung, 96.4 µM; with KM12 colon, greater than 100 µM; in the experiment on HCT-15 colon, greater than 100 µM; with RPMI-8226 leukemia, greater than 100 µM. In the experiment on MALME-3M melanoma, the TGI is greater than 100 µM.

Regarding `CCCCCCC[CH2][Sn]1([CH2]CCCCCCC)[O]C(=O)c2cccnc2[O]1`, the GI50 in the experiment with SW-620 colon, in the experiment on OVCAR-8 ovarian, in the experiment on NCI-H23 lung, in the experiment on KM12 colon, in the experiment with HCT-15 colon and in the experiment with RPMI-8226 leukemia was greater than 100 µM each time. Further, the GI50 with MALME-3M melanoma is greater than 100 µM. The TGI in the experiment with SW-620 colon, in the experiment on OVCAR-8 ovarian, in the experiment with NCI-H23 lung, in the experiment with KM12 colon, in the experiment on HCT-15 colon and in the experiment on RPMI-8226 leukemia was greater than 100 µM throughout. For the same compound, in the experiment on MALME-3M melanoma, the TGI is greater than 100 µM.

(Values after PubChem BioAssay (NCI).)
